One data set concerns Hepatitis C virus. In words: Antiviral activity against HCV infected in human Huh5-2 cells assessed as reduction of virus-induced cytopathogenicity after 4 days. The following applies: Huh-5-2, 96 h. The format is functional, organism-based, Hepacivirus hominis. (In general: Cytopathic effects are the visible damage that an infection or toxin causes in cultured cells.)
The nature of data set [1]: Selectivity index, ratio of CC50 for human Huh 5-2 cells to EC50 for HCV.
A short description of data set [2]: Cytotoxicity against HCV infected human Huh5-2 cells assessed as microscopically detectable alteration in cell morphology after 3 days. The format is cell-based, Huh-5-2. The settings on record: HCV infected Huh5-2 cells.

The values that follow come from ChEMBL document CHEMBL1140916, “Structure-activity relationship of new anti-hepatitis C virus agents: heterobicycle-coumarin conjugates” (J Med Chem, 2009).

As a reminder, the EC50 is the midpoint of the concentration-response curve. Broadly, the CC50 is the concentration that lowers cell viability or growth by half.

`COc1cccc2cc(CSc3nc4ccccc4n3[C@H]3C[C@@H](OC(C)=O)[C@H](OC(C)=O)[C@@H](COC(C)=O)O3)c(=O)oc12`: the EC50 with Hepatitis C virus came out at 12 µM. Further, the “Ratio CC50/EC50” value in data set [1] turned out to be 2.2. Besides, the CC50 at 72 h in data set [2] was found to be 26 µM.

As for `CC(=O)OC[C@H]1O[C@@H](n2c(SCc3ccc([N+](=O)[O-])cc3)nc3ccccc32)[C@H](OC(C)=O)[C@@H](OC(C)=O)[C@@H]1OC(C)=O`, the EC50 with Hepatitis C virus was determined as 63 µM. Moreover, in data set [1], the “Ratio CC50/EC50” value came to 1.3. In addition, the CC50 at 72 h in data set [2] was 83 µM.

For `O=c1oc2ccccc2cc1CSc1nc2cncnc2[nH]1`, the EC50 in the data set on Hepatitis C virus amounted to 2 µM. For the same compound, the “Ratio CC50/EC50” value in data set [1] is recorded as 54. Besides, in data set [2], the CC50 at 72 h came out at 109 µM.

`O=c1oc2ccc(Br)cc2cc1CSc1nc2cccnc2[nH]1`: the EC50 with Hepatitis C virus is 6.8 µM. Also, the “Ratio CC50/EC50” value in data set [1] was 19. The CC50 at 72 h in data set [2] worked out at 128 µM.

`Cc1ccc2[nH]c(SCc3ccncc3)nc2c1`: the EC50 with Hepatitis C virus was found to be 199 µM. Further, the “Ratio CC50/EC50” value in data set [1] is recorded as 1. Besides, the 50% cytotoxic concentration (CC50) at 72 h in data set [2] was 199 µM.

On to `CC(=O)OC[C@H]1O[C@@H](n2c(=S)[nH]c3ccccc32)[C@H](OC(C)=O)[C@@H](OC(C)=O)[C@@H]1OC(C)=O`, for which the EC50 with Hepatitis C virus worked out at 104 µM. Moreover, the “Ratio CC50/EC50” value in data set [1] is listed as 1. The CC50 at 72 h in data set [2] was determined as 104 µM.

Turning to `O=c1oc2ccccc2cc1CSc1nc2cccnc2[nH]1`, the EC50 with Hepatitis C virus stood at 59 µM. In addition, the “Ratio CC50/EC50” value in data set [1] is 1.6. The CC50 at 72 h in data set [2] worked out at 95 µM.

On to `c1ccc2cc(CSc3nc4ccccc4[nH]3)ccc2c1`, for which the EC50 in the data set with Hepatitis C virus worked out at 76 µM. Also, the “Ratio CC50/EC50” value in data set [1] is listed as 0.73. In addition, the CC50 at 72 h in data set [2] is 56 µM.

`Fc1ccc2[nH]c(SCc3ccccc3)nc2c1`: the EC50 in the data set on Hepatitis C virus stood at 197 µM. The “Ratio CC50/EC50” value in data set [1] is recorded as 1. Besides, the CC50 at 72 h in data set [2] is 197 µM.

Consider `Clc1cc2nc(SCc3ccncc3)[nH]c2cc1Cl`, for which the EC50 in the data set on Hepatitis C virus worked out at 100 µM. Moreover, the “Ratio CC50/EC50” value in data set [1] was found to be 1.1. Moreover, the CC50 at 72 h in data set [2] is 107 µM.

Take `O=c1oc2ccccc2cc1CSc1nc2ccccc2[nH]1`: the EC50 in the data set with Hepatitis C virus stood at 27 µM. For the same compound, the “Ratio CC50/EC50” value in data set [1] was 3.4. For the same compound, in data set [2], the half-maximal cytotoxic concentration (CC50) at 72 h is 90 µM.

Take `COc1cccc2cc(CSc3nc4ccccc4[nH]3)c(=O)oc12`: the EC50 in the data set with Hepatitis C virus was 10 µM. In data set [1], the “Ratio CC50/EC50” value was found to be 2.8. In addition, the CC50 at 72 h in data set [2] was 27 µM.

As to `O=c1oc2ccccc2cc1CSc1nc2ccccc2s1`, the EC50 in the data set with Hepatitis C virus was determined as 80 µM. In addition, the “Ratio CC50/EC50” value in data set [1] is listed as 1.9. For the same compound, the CC50 at 72 h in data set [2] was 153 µM.

As to `O=c1oc2ccc(Br)cc2cc1CSc1nc2ccccc2o1`, the EC50 in the data set on Hepatitis C virus stood at 12 µM. The “Ratio CC50/EC50” value in data set [1] is reported as 11. Moreover, the 50% cytotoxic concentration (CC50) at 72 h in data set [2] turned out to be 131 µM.

In the case of `COc1cccc2cc(CSc3nc4ccccc4s3)c(=O)oc12`, the EC50 in the data set on Hepatitis C virus came out at 29 µM. Moreover, the “Ratio CC50/EC50” value in data set [1] was 1.4. The CC50 at 72 h in data set [2] came to 40 µM.

In the case of `O=c1oc2ccccc2cc1CSc1nc2ccccc2o1`, the EC50 in the data set on Hepatitis C virus was 12 µM. Besides, in data set [1], the “Ratio CC50/EC50” value is 3.9. The CC50 at 72 h in data set [2] worked out at 45 µM.

Turning to `COc1cccc2cc(CSc3nc4cncnc4[nH]3)c(=O)oc12`, in the data set on Hepatitis C virus, the EC50 was 20 µM. In addition, the “Ratio CC50/EC50” value in data set [1] is recorded as 4.8. The CC50 at 72 h in data set [2] is 94 µM.

With `CC(=O)OC[C@H]1O[C@@H](n2c(SCc3cc4cc(Br)ccc4oc3=O)nc3ccccc32)C[C@@H](OC(C)=O)[C@@H]1OC(C)=O`, in the data set with Hepatitis C virus, the EC50 was found to be 4.1 µM. Besides, in data set [1], the “Ratio CC50/EC50” value is 4. Also, the CC50 at 72 h in data set [2] was found to be 16 µM.

Consider `CC(=O)OC[C@H]1O[C@@H](n2c(SCc3cc4cc(Br)ccc4oc3=O)nc3cc(Cl)c(Cl)cc32)C[C@@H](OC(C)=O)[C@@H]1OC(C)=O`, for which, in the data set on Hepatitis C virus, the EC50 is 1.8 µM. Besides, the “Ratio CC50/EC50” value in data set [1] was 6.4. Besides, the CC50 at 72 h in data set [2] was found to be 11 µM.

Regarding `COc1cccc2cc(CSc3nc4cccnc4[nH]3)c(=O)oc12`, the EC50 in the data set with Hepatitis C virus was 11 µM. In data set [1], the “Ratio CC50/EC50” value amounted to 2.8. The CC50 at 72 h in data set [2] was determined as 30 µM.

`O=c1oc2ccccc2cc1CSc1nc2cc(Cl)c(Cl)cc2[nH]1`: the EC50 with Hepatitis C virus was determined as 15 µM. Besides, the “Ratio CC50/EC50” value in data set [1] stood at 4.9. In addition, the CC50 at 72 h in data set [2] was 74 µM.

Take `COc1cccc2cc(CSc3nc4ccccc4o3)c(=O)oc12`: the EC50 with Hepatitis C virus was determined as 19 µM. Moreover, in data set [1], the “Ratio CC50/EC50” value is recorded as 0.96. Further, the CC50 at 72 h in data set [2] amounted to 18 µM.

Consider `Fc1ccc2[nH]c(SCc3ccncc3)nc2c1`, for which the EC50 in the data set on Hepatitis C virus amounted to 184 µM. In data set [1], the “Ratio CC50/EC50” value is on record as 1.1. Further, in data set [2], the CC50 at 72 h is 196 µM.
